Assays:
Assay in all cases: relative viability (nuclei count vs DMSO), 5 days (fraction); higher = more cells survive
Selisistat + Tozasertib = compound: C1CC(C2=C(C1)C3=C(N2)C=CC(=C3)Cl)C(=O)N [Selisistat] + Cc1cc(Nc2cc(N3CCN(C)CC3)nc(Sc3ccc(NC(=O)C4CC4)cc3)n2)n[nH]1 [Tozasertib] (partner 0.1 µM)
How it was run: (§1)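 Relative viability equals treated-well nuclei counts divided by vehicle-well nuclei counts. Counts came from 4× images of lung cancer cell lines grown in 1536-well plates for 5 days after pin-tool dosing on the day after seeding. Dosing used one drug alone or a fixed anchor-drug dose plus five library-drug doses (not always all listed) in √10 steps, and values are medians of duplicate plates.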

Selisistat + Lapatinib = compound: C1CC(C2=C(C1)C3=C(N2)C=CC(=C3)Cl)C(=O)N [Selisistat] + CS(=O)(=O)CCNCc1ccc(-c2ccc3ncnc(Nc4ccc(OCc5cccc(F)c5)c(Cl)c4)c3c2)o1 [Lapatinib] (partner 2 µM)
How it was run: as §1

Selisistat + Olaparib = compound: C1CC(C2=C(C1)C3=C(N2)C=CC(=C3)Cl)C(=O)N [Selisistat] + O=C(c1cc(Cc2n[nH]c(=O)c3ccccc23)ccc1F)N1CCN(C(=O)C2CC2)CC1 [Olaparib] (partner 8 µM)
How it was run: as §1

Selisistat + Bortezomib = compound: C1CC(C2=C(C1)C3=C(N2)C=CC(=C3)Cl)C(=O)N [Selisistat] + CC(C)C[C@H](NC(=O)[C@H](Cc1ccccc1)NC(=O)c1cnccn1)B(O)O [Bortezomib] (partner 0.002 µM)
How it was run: as §1

| Cell Line | relative viability (Selisistat + Tozasertib; first compound 0.4 µM) | relative viability (Selisistat + Tozasertib; first compound 1.265 µM) | relative viability (Selisistat + Tozasertib; first compound 4 µM) | relative viability (Selisistat + Tozasertib; first compound 12.65 µM) | relative viability (Selisistat + Tozasertib; first compound 40 µM) | relative viability (Selisistat + Lapatinib; first compound 0.4 µM) | relative viability (Selisistat + Lapatinib; first compound 1.265 µM) | relative viability (Selisistat + Lapatinib; first compound 4 µM) | relative viability (Selisistat + Lapatinib; first compound 12.65 µM) | relative viability (Selisistat + Lapatinib; first compound 40 µM) | relative viability (Selisistat + Olaparib; first compound 0.4 µM) | relative viability (Selisistat + Olaparib; first compound 1.265 µM) | relative viability (Selisistat + Olaparib; first compound 4 µM) | relative viability (Selisistat + Olaparib; first compound 12.65 µM) | relative viability (Selisistat + Olaparib; first compound 40 µM) | relative viability (Selisistat + Bortezomib; first compound 0.4 µM) | relative viability (Selisistat + Bortezomib; first compound 1.265 µM) | relative viability (Selisistat + Bortezomib; first compound 4 µM) | relative viability (Selisistat + Bortezomib; first compound 12.65 µM) | relative viability (Selisistat + Bortezomib; first compound 40 µM) |
| --- | --- | --- | --- | --- | --- | --- | --- | --- | --- | --- | --- | --- | --- | --- | --- | --- | --- | --- | --- | --- |
| LOU-NH91 | 0.784 | 0.626 | 0.598 | 0.703 | 0.673 | 0.753 | 0.741 | 0.741 | 0.762 | 0.758 | 0.936 | 0.867 | 0.914 | 0.895 | 0.899 | 0.499 | 0.505 | 0.448 | 0.511 | 0.515 |
| NCI-H3122 | 0.367 | 0.352 | 0.347 | 0.34 | 0.372 | 1.01 | 1.01 | 0.772 | 1.05 | 1.1 | 0.661 | 0.661 | – | 0.556 | 0.649 | 1 | 1 | 0.837 | 1.1 | 0.995 |
| HCC-827 | 0.418 | 0.429 | 0.444 | 0.389 | 0.392 | 0.192 | 0.189 | 0.203 | 0.182 | 0.186 | 0.678 | 0.741 | 0.672 | 0.647 | 0.627 | 1.06 | 1.04 | 0.994 | 0.886 | 0.951 |
| SK-LU-1 | 0.365 | 0.329 | 0.302 | 0.32 | 0.314 | 0.924 | 0.825 | 0.936 | 0.958 | 0.867 | 0.567 | 0.408 | 0.404 | 0.495 | 0.529 | 1.23 | – | 1.27 | 0.998 | 1.75 |
| NCI-H1975 | 0.715 | 0.63 | 0.69 | 0.48 | 0.396 | 0.823 | 0.831 | 0.706 | 0.759 | 0.65 | 0.765 | 0.728 | 0.776 | 0.653 | 0.605 | 0.434 | 0.339 | 0.33 | 0.354 | 0.388 |
| NCI-H1651 | 0.7 | 0.735 | 0.599 | 0.618 | 0.584 | 0.785 | 0.769 | 0.749 | 0.789 | 0.939 | 0.197 | 0.168 | 0.215 | 0.183 | 0.21 | 1.02 | 0.939 | 0.868 | 0.874 | 0.847 |
| LCLC-97TM1 | 0.207 | 0.216 | – | 0.231 | 0.212 | 0.779 | 1.12 | 0.86 | 0.928 | 1.32 | 0.488 | 0.304 | – | 0.285 | 0.366 | 0.696 | 0.77 | – | 0.555 | 0.553 |
| NCI-H727 | 0.681 | 0.518 | – | 0.483 | 0.69 | 0.626 | 0.841 | – | – | 0.725 | 0.737 | 0.635 | 0.631 | 0.655 | 0.687 | 1.01 | 0.623 | – | – | 0.864 |
| NCI-H1355 | 0.599 | 0.648 | 0.519 | 0.497 | 0.589 | 0.923 | 1 | – | 1.02 | 1.04 | 0.796 | 0.775 | 0.664 | 0.735 | 0.813 | 1.18 | 1.21 | – | 1.13 | 1.35 |
| HOP-62 | 0.362 | 0.383 | 0.464 | 0.375 | 0.372 | 0.974 | 1.03 | 0.96 | 0.884 | 1.14 | 0.394 | 0.422 | 0.419 | 0.432 | 0.73 | 0.837 | 1.08 | 0.867 | 0.624 | 0.883 |
| NCI-H2085 | 0.852 | 0.779 | 0.697 | 0.805 | 0.806 | 0.818 | 0.797 | 0.725 | 0.753 | 0.724 | 0.818 | 0.771 | 0.766 | 0.824 | 0.855 | 1.07 | 1.14 | 0.95 | 1.17 | 1.02 |

From the supplement of paper PMC10307832
